{"source": "paper PMC7413516", "about": "“Antidepressant-like activity and safety profile evaluation of 1H-imidazo[2,1-f]purine-2,4(3H,8H)-dione derivatives as 5-HT1A receptor partial agonists” (PLoS ONE, 2020)", "experiment": "Pharmacokinetic study in mice, plasma and brain structures, LC/MS/MS", "format": "in vivo, Swiss albino mice", "conditions": "Swiss albino, mouse, ip, 1.25 mg/kg i.p.", "method": "Blood samples from the Swiss albino mice were collected at 0 (pre-dose), 5, 15, 30, 60, 120, 240 and 480 min after a compound administration. The blood samples and brain structures were collected under general anesthesia induced by i.p. injection of 50 mg/kg ketamine plus 8 mg/kg xylazine. The blood samples were taken into heparinized tubes, immediately centrifuged at 1000 × g for 10 min, and plasma was collected. The plasma samples and brain structures were immediately frozen at -30°C and -80°C, respectively.\nThe plasma and tissue sample pretreatment procedure involved acetonitrile precipitation. A 5 μL aliquot of the IS working solution (100 ng/mL) was added to 50 μL of the collected mouse plasma sample, which was then vortex-mixed for 10 seconds. Thereafter, 200 μL of acetonitrile was added, vortexed during 20 min, and then centrifuged (1000 × g, 10 min). The supernatant (100 μL) was then transferred to insert placed in an autosampler vial, and a 10 μL volume of this was injected onto the HPLC column. Tissue samples were thawed before use, and whole hippocampus, striatum and frontal cortex were weighted and placed in a glass mortar and pestle tissue grinder and homogenized with an appropriate amount of phosphate buffer (pH 7.4) in 1:5 ratio. Afterward, 50 μL of tissue homogenates were transferred to new Eppendorf tubes and spiked with 5 μL of the internal standard working solution. All samples were stored on ice during the preparation process. This was followed by procedures like those described above.\nThe LC/ESI-MS/MS experiments were performed on an Applied Biosystems/MDS Sciex (Concord, Ontario, Canada) API 2000 triple quadrupole mass spectrometer equipped with an electrospray (ESI) ionization interface. This instrument was coupled to an Agilent 1100 (Agilent Technologies, Waldbronn, Germany) LC system. Data acquisition and processing were accomplished using Sciex Analyst 1.4.2 data collection and integration software.\nAn XBridge C18 (2.1 x 30 mm, 3.5 μm) analytical column (Waters, Milford, Massachusetts, USA) was used for compound separation. The temperatures of the column thermostat and the autosampler were set at 25°C and 10°C, respectively. The mobile phase consisted of a mixture of acetonitrile with addition of 0.1% formic acid (solvent A) and water with addition of 0.1% formic acid (solvent B) and was set at a flow rate of 0.6 mL/min. Starting amount of solvent A is 10%, isocratic elution from 0 to 3 min, and then gradient up to 90% of solvent A, and maintained to 10 min, and then gradient down to 10% of solvent A, and maintained to 15 min.\nThe ion source parameters were as follows: ion spray voltage: 5500 V; nebulizer gas (gas 1): 20 psi; turbo gas (gas 2): 25 psi; temperature of the heated nebulizer: 400°C; curtain gas: 40 psi; collision gas: 6 psi. Mass spectra were acquired by SRM with precursor/predominant product ion transitions for each analyte. The mass spectral Q1→Q3 transitions monitored for AZ-853, AZ-861 and for IS (nebivolol), were m/z 453.9→235.1; 504.3→285.1 and 406.2→151.1, respectively. The peak widths of precursor and product ions were set to 0.7 full width half-height. Quantification was done via peak area ratio.\nPharmacokinetic parameters were calculated by a non-compartmental approach from the average concentration values, using Phoenix WinNonlin software (Certara, Princeton, NJ 08540 USA). First order elimination rate constant (λz) was calculated by linear regression of time versus log concentration. Next, the area under the mean serum and tissue concentration versus time curve (AUC0→t) was estimated using the log-linear trapezoidal rule (1), where Ci is the plasma concentration measured at t1.\nAUC0→t=∑i=1n((Ci+Ci+1)/2)∙(ti+1−ti). (1)\nArea under the first-moment curve (AUMC0→t) was estimated by calculation of the total area under the first-moment curve using the Eq (2), where Ci is the plasma concentration measured at t1. AUMC0→t=∑i=1n((ti∙Ci+ti+1∙Ci+1)/2)∙(ti+1−ti). […]", "key": {"[1]": {"conditions": "hippocampus, 1.25 mg/kg, read-out: Concentration, hippocampus (individual animals)"}, "[2]": {"conditions": "hippocampus, 1.25 mg/kg, read-out: Concentration, hippocampus (Mean)"}, "[3]": {"conditions": "plasma, 1.25 mg/kg, read-out: Concentration, plasma (Mean)"}, "[4]": {"conditions": "plasma, 1.25 mg/kg, read-out: Concentration, plasma (individual animals)"}, "[5]": {"conditions": "striatum, 1.25 mg/kg, read-out: Concentration, striatum (Mean)"}, "[6]": {"conditions": "striatum, 1.25 mg/kg, read-out: Concentration, striatum (individual animals)"}}, "note": "Where two headings read alike, the source gives them in different places."}
{"smiles": "Cn1c(=O)c2c(nc3n(CCCCN4CCN(c5cccc(C(F)(F)F)c5)CC4)ccn23)n(C)c1=O", "note": "[AZ-861, 1,3-dimethyl-8-(4-(4-(3-(trifluoromethyl)phenyl)piperazin-1-yl)butyl)-1H-imidazo[2,1-f]purine-2,4(3H,8H)-dione]", "values": [{"measurement": "concentration at 5 min", "setting": "[1]", "value": 289, "unit": "ng/mL"}, {"measurement": "concentration at 15 min", "setting": "[2]", "value": 307, "unit": "ng/mL"}, {"measurement": "concentration at 15 min", "setting": "[1]", "value": 264, "unit": "ng/mL"}, {"measurement": "concentration at 30 min", "setting": "[2]", "value": 253, "unit": "ng/mL"}, {"measurement": "concentration at 30 min", "setting": "[1]", "value": 245, "unit": "ng/mL"}, {"measurement": "concentration at 60 min", "setting": "[2]", "value": 96.9, "unit": "ng/mL"}, {"measurement": "concentration at 60 min", "setting": "[1]", "value": 101, "unit": "ng/mL"}, {"measurement": "concentration at 120 min", "setting": "[2]", "value": 54.3, "unit": "ng/mL"}, {"measurement": "concentration at 120 min", "setting": "[1]", "value": 60.2, "unit": "ng/mL"}, {"measurement": "concentration at 240 min", "setting": "[2]", "value": 19.6, "unit": "ng/mL"}, {"measurement": "concentration at 240 min", "setting": "[1]", "value": 18.2, "unit": "ng/mL"}, {"measurement": "concentration at 480 min", "setting": "[2]", "value": 15.8, "unit": "ng/mL"}, {"measurement": "concentration at 480 min", "setting": "[1]", "value": 15.8, "unit": "ng/mL"}, {"measurement": "Cmax", "setting": "hippocampus, 1.25 mg/kg, read-out: Cmax, hippocampus", "value": 308, "unit": "ng/g"}, {"measurement": "Tmax", "setting": "hippocampus, 1.25 mg/kg, read-out: tmax, hippocampus (converted)", "value": 15, "unit": "min"}, {"measurement": "CL/F", "setting": "plasma", "value": 590, "unit": "mL/min/kg"}, {"measurement": "AUC(0-t)", "setting": "plasma, read-out: AUC0→t, plasma (converted)", "value": 34.5, "unit": "ng·h/mL"}, {"measurement": "MRT", "setting": "plasma, read-out: MRT, plasma (converted)", "value": 52.3, "unit": "min"}, {"measurement": "concentration at 5 min", "setting": "[3]", "value": 59.8, "unit": "ng/mL"}, {"measurement": "concentration at 15 min", "setting": "[3]", "value": 36.3, "unit": "ng/mL"}, {"measurement": "concentration at 15 min", "setting": "[4]", "value": 26.4, "unit": "ng/mL"}, {"measurement": "concentration at 30 min", "setting": "[3]", "value": 24.8, "unit": "ng/mL"}, {"measurement": "concentration at 60 min", "setting": "[3]", "value": 5.84, "unit": "ng/mL"}, {"measurement": "concentration at 60 min", "setting": "[4]", "value": 7.37, "unit": "ng/mL"}, {"measurement": "concentration at 120 min", "setting": "[3]", "value": 2.58, "unit": "ng/mL"}, {"measurement": "concentration at 120 min", "setting": "[4]", "value": 1.84, "unit": "ng/mL"}, {"measurement": "concentration at 240 min", "setting": "[3]", "value": 0.56, "unit": "ng/mL"}, {"measurement": "concentration at 480 min", "setting": "[3]", "value": 0.27, "unit": "ng/mL"}, {"measurement": "concentration at 480 min", "setting": "[4]", "value": 0.25, "unit": "ng/mL"}, {"measurement": "Vd/F", "setting": "plasma, 1.25 mg/kg, plasma, read-out: Vd/F", "value": "> 84", "unit": "L/kg"}, {"measurement": "Cmax", "setting": "plasma, 1.25 mg/kg, read-out: Cmax, plasma", "value": 59.6, "unit": "ng/mL"}, {"measurement": "Tmax", "setting": "plasma, 1.25 mg/kg, read-out: tmax, plasma", "value": "≤ 5", "unit": "min"}, {"measurement": "Kp", "setting": "striatum, ratio of AUC values, read-out: Brain structure-to-plasma concentration ratio, striatum (S/P)", "value": 8.97}, {"measurement": "AUC(0-t)", "setting": "striatum, read-out: AUC0→t, striatum (converted)", "value": 309, "unit": "ng·h/mL"}, {"measurement": "MRT", "setting": "striatum, read-out: MRT, striatum (converted)", "value": 56.9, "unit": "min"}, {"measurement": "concentration at 5 min", "setting": "[5]", "value": 181, "unit": "ng/mL"}, {"measurement": "concentration at 5 min", "setting": "[6]", "value": 190, "unit": "ng/mL"}, {"measurement": "concentration at 15 min", "setting": "[5]", "value": 334, "unit": "ng/mL"}, {"measurement": "concentration at 15 min", "setting": "[6]", "value": 377, "unit": "ng/mL"}, {"measurement": "concentration at 30 min", "setting": "[5]", "value": 305, "unit": "ng/mL"}, {"measurement": "concentration at 30 min", "setting": "[6]", "value": 341, "unit": "ng/mL"}, {"measurement": "concentration at 60 min", "setting": "[5]", "value": 58.1, "unit": "ng/mL"}, {"measurement": "concentration at 60 min", "setting": "[6]", "value": 61.6, "unit": "ng/mL"}, {"measurement": "concentration at 120 min", "setting": "[5]", "value": 25.6, "unit": "ng/mL"}, {"measurement": "concentration at 120 min", "setting": "[6]", "value": 28.4, "unit": "ng/mL"}, {"measurement": "concentration at 240 min", "setting": "[5]", "value": 5.89, "unit": "ng/mL"}, {"measurement": "concentration at 240 min", "setting": "[6]", "value": 6.95, "unit": "ng/mL"}, {"measurement": "concentration at 480 min", "setting": "[5]", "value": 1.86, "unit": "ng/mL"}, {"measurement": "concentration at 480 min", "setting": "[6]", "value": 1.65, "unit": "ng/mL"}, {"measurement": "Cmax", "setting": "striatum, 1.25 mg/kg, read-out: Cmax, striatum", "value": 333, "unit": "ng/g"}, {"measurement": "Tmax", "setting": "striatum, 1.25 mg/kg, read-out: tmax, striatum (converted)", "value": 15, "unit": "min"}]}
